Assay results published in patent US8765749B2, “1,6-disubstituted indole compounds as protein kinase inhibitors” (Korea Institute of Science and Technology, priority 2009, dated 2014).

Key:
[1] = cited from earlier work
A375 melanoma cells = settings: read-out: proliferation of A375 melanoma cells IC50; cited from earlier work
A375P cells = test: Inhibition activity against proliferation of A375P melanoma cells (MTT assay); settings: Homo sapiens, read-out: Inhibition activity against proliferation of A375P cells (GI50, μM)
B-Raf (V600E) = biological target: T1, B-Raf (V600E) (Homo sapiens, UniProt P15056, V600E); test: Measurement of B-Raf-V600E kinase activity (MEK1 (K97R) phosphorylation, [γ-32P] ATP); format: biochemical; settings: read-out: B-Raf kinase inhibition activity (% inhibition at 1 μM)
T1 construct: purchased Cell Signaling #7663
Protocol: (1) Activation of MEK1 (K97R) by B-Raf
Base reaction buffer (20 mM Hepes (pH 7.5), 10 mM MgCl2, 1 mM EGTA, 0.02% Brij35, 0.02 mg/mL BSA, 0.1 mM Na3VO, 2 mM DTT, 1% DMSO) was prepared. B-Raf (V600E) (Cell Signaling #7663) diluted to 30 nM was added at a final concentration of 10 nM, and MEK1 (K97R) (Upstate #14-737) diluted to 3 μM was added at a final concentration of 1 μM. The test compound was prepared at a concentration of 10 mM in dimethylsulfoxide (DMSO) and diluted to various concentrations. The final volume was adjusted to 20 μL and, after completely mixing, the mixture was allowed to react at room temperature for 30 minutes.
(2) Phosphorylation of MEK1 (K97R)
[γ-32P] ATP (100 μCi/container) diluted to 1/10 was added in 10 μL aliquots. After completely mixing, the mixture was allowed to react at room temperature for 2 hours. After placing P81 paper in a scintillation vial, spotting was performed using 30 μL of the reaction mixture. After washing 3 times with 0.75% phosphoric acid for 10 minutes and washing once with acetone for 10 minutes, 5 mL of scintillation cocktail was added to the scintillation vial holding the washed P81 paper. Signals were recorded using a scintillation counter.

SK-MEL28 cells = test: Inhibition activity against proliferation of SK-MEL28 melanoma cells (MTT assay); settings: Homo sapiens, SK-MEL-28, read-out: Inhibition activity against proliferation of SK-MEL28 cells (GI50, μM)

T1 sequence (P15056 whole entry V600E): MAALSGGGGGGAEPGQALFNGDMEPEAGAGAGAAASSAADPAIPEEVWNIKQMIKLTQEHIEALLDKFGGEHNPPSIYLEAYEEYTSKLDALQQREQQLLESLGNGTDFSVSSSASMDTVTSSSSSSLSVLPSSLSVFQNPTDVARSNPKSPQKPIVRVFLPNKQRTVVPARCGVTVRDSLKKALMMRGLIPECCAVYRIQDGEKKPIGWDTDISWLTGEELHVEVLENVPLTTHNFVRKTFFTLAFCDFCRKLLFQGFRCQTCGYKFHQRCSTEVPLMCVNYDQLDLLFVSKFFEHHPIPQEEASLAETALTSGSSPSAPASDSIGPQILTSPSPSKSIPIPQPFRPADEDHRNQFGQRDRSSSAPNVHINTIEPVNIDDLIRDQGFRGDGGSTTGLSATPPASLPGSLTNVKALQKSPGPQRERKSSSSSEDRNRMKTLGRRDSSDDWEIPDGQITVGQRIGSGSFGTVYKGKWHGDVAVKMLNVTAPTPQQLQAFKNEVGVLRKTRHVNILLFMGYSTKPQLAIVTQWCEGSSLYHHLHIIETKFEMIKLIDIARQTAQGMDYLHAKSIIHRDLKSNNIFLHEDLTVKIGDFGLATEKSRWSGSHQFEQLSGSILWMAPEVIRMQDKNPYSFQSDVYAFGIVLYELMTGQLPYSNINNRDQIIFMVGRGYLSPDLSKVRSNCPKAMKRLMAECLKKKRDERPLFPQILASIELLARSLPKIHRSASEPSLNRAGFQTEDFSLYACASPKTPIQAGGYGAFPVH

GI50 (A375P cells) [µM] | inhibition at 1 µM (B-Raf (V600E)) [%] | GI50 (SK-MEL28 cells) [µM] | SMILES | skin toxicity ([1]; 600 mg (twice a day)) | maximum allowed administration dose ([1]; clinical trial phase II, twice a day) [mg] | IC50 (A375 melanoma cells) [µM]
– | – | – | CNC(=O)c1cc(Oc2ccc(NC(=O)Nc3ccc(Cl)c(C(F)(F)F)c3)cc2)ccn1 [sorafenib, Sorafenib] | grade 3 skin toxicity | 400 | –
– | – | – | CCCS(=O)(=O)Nc1ccc(F)c(C(=O)c2c[nH]c3ncc(Cl)cc23)c1F [PLX4720] | – | – | 0.5
< 10 | > 50 | < 10 | CNc1cc(-n2ccc3ccc(-c4cccc(NC(=O)Nc5ccccc5OC)c4)cc32)ncn1 [Example 22, 1-(2-methoxyphenyl)-3-(3-(1-(6-(methylamino)pyrimidin-4-yl)-1H-indol-6-yl)phenyl)urea] | – | – | –
< 10 | > 50 | < 10 | COc1ccccc1NC(=O)Nc1ccc(C)c(-c2ccc3ccn(-c4cc(N)ncn4)c3c2)c1 [Example 21, 1-(3-(1-(6-aminopyrimidin-4-yl)-1H-indol-6-yl)-4-methylphenyl)-3-(2-methoxyphenyl)urea] | – | – | –
< 10 | > 50 | < 10 | COc1ccccc1NC(=O)Nc1cccc(-c2ccc3ccn(-c4cc(NC(=O)C5CC5)ncn4)c3c2)c1 [Example 26, N-(6-(6-(3-(3-(2-methoxyphenyl)ureido)phenyl)-1H-indol-1-yl)pyrimidin-4-yl)cyclopropanecarboxamide] | – | – | –
